Target: Recombinant human CD33 protein (Homo sapiens (Human), UniProt P20138)
Test: CD33 competitive binding assay for HTS drug screen (fluorescent multivalent sialic acid probe)
Experimental: This is a competitive binding assay that uses recombinant CD33 immobilized to a plate and a fluorescently-labeled multivalent sialic acid analog as a probe. Binding of drug to the site on CD33 to which sialic acid binds is detected by reduced binding of the fluorescent probe. Recombinant human CD33 protein (for example Acro Biosystems cat #CD3-H5257) was added at a concentration of 10 μg/ml in 20 mM acetate buffer (pH5.5) to a black plastic plate (Corning 4510) and allowed to incubate overnight at 4° C. The next day, the wells were washed 3 times with PBS containing 0.02% Tween-20. This was followed by a 30-minute incubation with PBS containing 0.2% Tween-20 and 0.5% BSA to block non-specific binding to the well. This buffer is removed and replaced with 10 μl of the same buffer, which is also used as the assay buffer. The fluorescent multivalent sialic acid probe was prepared as a 4× concentration as follows. A biotinylated sialic acid analog A-375 was mixed with biotin-4-Fluorescein isothiocyanate (biotin-4-FITC) at a 3:1 molar ratio with final concentrations (4× stock) of 60 μM A-375 and 20 μM biotin-4-FITC. After these were mixed, 20 μM of neutravidin was added, which should form complexes consisting of neutravidin, fluorescein and sialic acid with an average complex consisting of 1 neutravidin, 1 FITC and 3 sialic acid analogs. The multimerization of the sialic acid analog is critical to the assay and improves the affinity of the sialic acid analog several orders of magnitude. A test compound, for example A-001, is added at 5 μl to the 10 μl assay buffer already in the well. After a brief incubation, 5 μl of the 4× stock solution of sialic acid complexes was added. The final concentration of the complexes was therefore 5 μM neutravidin, 15 μM A-375 and 5 μM FITC. The plate was incubated at room temperature for 30 mins and then washed with PBS containing 0.2% Tween-20. Binding of the sialic acid complex is very stable, with an off-rate of several days. Bound complex was then detected using a standard plate reader to quantify FITC fluorescence.

Chain of Recombinant human CD33 protein (P20138 18-259): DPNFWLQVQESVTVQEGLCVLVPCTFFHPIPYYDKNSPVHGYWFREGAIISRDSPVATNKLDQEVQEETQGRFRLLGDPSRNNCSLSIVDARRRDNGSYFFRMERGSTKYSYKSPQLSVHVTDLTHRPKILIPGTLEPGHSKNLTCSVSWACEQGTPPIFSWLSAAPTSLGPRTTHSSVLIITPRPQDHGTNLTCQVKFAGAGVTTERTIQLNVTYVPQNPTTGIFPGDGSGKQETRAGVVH

Row | SMILES | EC50 [µM]
1 | COC[C@@]1(NCC[C@]2(C(=O)O)C[C@H](O)[C@@H](NC(C)=O)[C@H]([C@H](O)[C@H](O)CNC(=O)c3cc(C)c(O)c(C)c3)O2)CCN(C(=O)OC(C)(C)C)C1 [A-030] | 0.049
2 | CC(=O)N[C@H]1[C@H]([C@H](O)[C@H](O)CNC(=O)c2cc(C)c(O)c(C)c2)O[C@@](CN2CCCC3(CCN(C(=O)OC(C)(C)C)C3)C2)(C(=O)O)C[C@@H]1O (stereo partly shown) [A-193] | 0.09
3 | C#C[C@H](C)C(=O)C(=O)Nc1cccc([C@@H]2OC(C)(C)OC2C[C@]2(C(=O)O)C[C@H](O)[C@@H](NC(C)=O)[C@H]([C@H](O)[C@H](O)CNC(=O)c3cc(C)c(O)c(C)c3)O2)c1 (stereo partly shown) [A-306] | 5.62
4 | Cc1cc(C(=O)NCC(O)C[C@@H]2O[C@@](C/C=C/C3CCN(C(=O)OC(C)(C)C)C3)(C(=O)O)CCC2C)cc2cc[nH]c12 (single isomer, unassigned) [A-212] | 17.4
5 | CC(=O)N[C@H]1[C@H]([C@H](O)[C@H](O)CNC(=O)c2ccc3sc(C)nc3c2)O[C@@](CCN2CCOC[C@@]23CCN(C(=O)OC(C)(C)C)C3)(C(=O)O)C[C@@H]1O [A-131] | 0.024
6 | Cc1cc(C(=O)NCC(O)C[C@@H]2O[C@@](CCN3CCOC[C@@]34CCN(C(=O)OC(C)(C)C)C4)(C(=O)O)CCC2C)cc(C)c1O (single isomer, unassigned) [A-215] | 60.4
7 | Cc1cc(C(=O)NCC(O)C[C@@H]2O[C@@](CCN3CCOC[C@@]34CCN(C(=O)OC(C)(C)C)C4)(C(=O)O)CCC2C)cc(C)c1O (single isomer, unassigned) [A-213] | 17.9
8 | Cc1cc(C(=O)NCC(O)C[C@@H]2O[C@@](C/C=C/C3CCN(C(=O)OC(C)(C)C)C3)(C(=O)O)CCC2C)cc2cc[nH]c12 (single isomer, unassigned) [A-211] | 15.2
9 | COC[C@@]1(N(C)CC[C@]2(C(=O)O)C[C@H](O)[C@@H](NC(C)=O)[C@H]([C@H](O)[C@H](O)CNC(=O)c3cc(C)c(O)c(C)c3)O2)CCN(C(=O)OC(C)(C)C)C1 [A-031] | 0.07
10 | CC(=O)N[C@H]1[C@H]([C@H](O)[C@H](O)CNC(=O)/C=C/c2cn[nH]c2)O[C@@](CCN2CCOC[C@@]23CCN(C(=O)OC(C)(C)C)C3)(C(=O)O)C[C@@H]1O [A-176] | 0.65
11 | Cc1cc(C(=O)NC[C@H](O)C[C@H]2CC[C@H](C)[C@](CCN3CCOC[C@@]34CCN(C(=O)OC(C)(C)C)C4)(C(=O)O)O2)cc2cc[nH]c12 [A-218] | > 20
12 | Cc1cc(C(=O)NCC(O)C[C@@H]2O[C@@](C/C=C/C3CCN(C(=O)OC(C)(C)C)C3)(C(=O)O)CCC2C)cc(C)c1O (single isomer, unassigned) [A-209] | 44.5
13 | Cc1cc(C(=O)NC[C@H](O)C[C@H]2CC[C@@H](C)[C@](CCN3CCOC[C@@]34CCN(C(=O)OC(C)(C)C)C4)(C(=O)O)O2)cc2cc[nH]c12 [A-219] | > 20
14 | Cc1cc(C(=O)NC[C@@H](O)C[C@H]2CCC[C@](CCN3CCOC[C@@]34CCN(C(=O)OC(C)(C)C)C4)(C(=O)O)O2)cc(C)c1O [A-208] | > 20
15 | Cc1cc(C(=O)NCC(O)C[C@@H]2O[C@@](CCN3CCOC[C@@]34CCN(C(=O)OC(C)(C)C)C4)(C(=O)O)CCC2C)cc(C)c1O (single isomer, unassigned) [A-214] | 9.8
16 | Cc1cc(C(=O)NC[C@@H](O)C[C@H]2CC[C@H](C)[C@](CCN3CCOC[C@@]34CCN(C(=O)OC(C)(C)C)C4)(C(=O)O)O2)cc2cc[nH]c12 [A-216] | 12.2
17 | C=C(OC(C)(C)C)N1CC2(CCN2CC[C@]2(C(=O)O)C[C@H](O)[C@@H](NC(C)=O)[C@H]([C@H](O)[C@H](O)CNC(=O)c3cc(C)c(O)c(C)c3)O2)C1 [A-021] | 0.887
18 | C=C(OC(C)(C)C)N1CCC2(CC1)CCN2CC[C@]1(C(=O)O)C[C@H](O)[C@@H](NC(C)=O)[C@H]([C@H](O)[C@H](O)CNC(=O)c2cc(C)c(O)c(C)c2)O1 [A-023] | 0.176
19 | Cc1cc2cc(C)c1OCCCC[C@H](NC(=O)C1CCCOC1)c1cccc(c1)/C=C/C[C@]1(C(=O)O)C[C@H](O)[C@@H](NC(=O)Cn3cc(C4CCCCC4)nn3)[C@@H](O1)[C@H](O)[C@H](O)CNC2=O (stereo partly shown) [A-350] | 13.3

Results, then the compound that gave them:

Row | EC50 [µM] | SMILES
20 | 2.05 | CC(=O)N[C@H]1[C@H]([C@H](O)[C@H](O)CNC(=O)c2cc(C)c(O)c(C)c2)O[C@@](CCN2CCOC[C@@]23CCN(C(=O)COC2CCCC2)C3)(C(=O)O)C[C@@H]1O [A-092]
21 | 0.063 | CC(=O)N[C@H]1[C@H]([C@H](O)[C@H](O)CNC(=O)c2cc(C)c(O)c(C)c2)O[C@@](CCN2CCOC[C@@]23CCN(C(=O)C2CCCCC2)C3)(C(=O)O)C[C@@H]1O [A-067]
22 | 0.472 | CC(=O)N[C@H]1[C@H]([C@H](O)[C@H](O)CNC(=O)c2cc(C)c(O)c(C)c2)O[C@@](CCN2CCC[C@]23CCN(C(=O)OC(C)(C)C)C3)(C(=O)O)C[C@@H]1O [A-020]
23 | 5.26 | CC(=O)N[C@H]1[C@H]([C@H](O)[C@H](O)CNC(=O)c2cc(C)c(O)c(C)c2)O[C@@](CCN2CCOC[C@@]23CCN(C(=O)c2ccccn2)C3)(C(=O)O)C[C@@H]1O [A-087]
24 | > 10 | CC(=O)N[C@H]1[C@H]([C@H](O)[C@H](O)CNC(=O)c2cc(C)c(O)c(C)c2)O[C@@](CCN2CCOC[C@@]23CCN(Cc2cccc(C)c2)C3)(C(=O)O)C[C@@H]1O [A-104]
25 | 1.28 | COC(C)(C)C(=O)N1CC[C@@]2(COCCN2CC[C@]2(C(=O)O)C[C@H](O)[C@@H](NC(C)=O)[C@H]([C@H](O)[C@H](O)CNC(=O)c3cc(C)c(O)c(C)c3)O2)C1 [A-085]
26 | 0.206 | CC(=O)N[C@H]1[C@H]([C@H](O)[C@H](O)CNC(=O)c2cc(C)c(O)c(C)c2)O[C@@](CCN2CCOC[C@@]23CCN(C(=O)CC2CCOCC2)C3)(C(=O)O)C[C@@H]1O [A-073]
27 | 0.153 | CC(=O)N[C@H]1[C@H]([C@H](O)[C@H](O)CNC(=O)c2cc(C)c(O)c(C)c2)O[C@@](CCN2CCOC[C@@]23CCN(C(=O)N[C@H](C)c2ccc(Br)cc2)C3)(C(=O)O)C[C@@H]1O [A-056]
28 | 2.33 | CC(=O)N[C@H]1[C@H]([C@H](O)[C@H](O)CNC(=O)c2cc(C)c(O)c(C)c2)O[C@@](CCN2CCOC[C@@]23CCN(C(=O)c2ccc4[nH]cnc4c2)C3)(C(=O)O)C[C@@H]1O [A-094]
29 | 0.147 | CC(=O)N[C@H]1[C@H]([C@H](O)[C@H](O)CNC(=O)c2cc(C)c(O)c(C)c2)O[C@@](CCN2CCOC[C@@]23CCN(C(=O)NC2(c4ccccc4)CC2)C3)(C(=O)O)C[C@@H]1O [A-054]
30 | 0.379 | CC(=O)N[C@H]1[C@H]([C@H](O)[C@H](O)CNC(=O)c2cc(C)c(O)c(C)c2)O[C@@](CCN2CCNC[C@]23CCN(C(=O)NC(C)(C)C)C3)(C(=O)O)C[C@@H]1O [A-107]
31 | 0.162 | CC(=O)N[C@H]1[C@H]([C@H](O)[C@H](O)CNC(=O)c2cc(C)c(O)c(C)c2)O[C@@](CCN2CCC23CCN(C(=O)OC(C)(C)C)C3)(C(=O)O)C[C@@H]1O (stereo partly shown) [A-018]
32 | 0.226 | CC(=O)N[C@H]1[C@H]([C@H](O)[C@H](O)CNC(=O)c2cc(C)c(O)c(C)c2)O[C@@](CCN2CCOC[C@@]23CCN(C(=O)C(C)C2CCCCC2)C3)(C(=O)O)C[C@@H]1O (stereo partly shown) [A-076]
33 | 0.263 | CC(=O)N[C@H]1[C@H]([C@H](O)[C@H](O)CNC(=O)c2cc(C)c(O)c(C)c2)O[C@@](CCN2CCOC[C@@]23CCN(C(=O)C2CCC(F)(F)C2)C3)(C(=O)O)C[C@@H]1O (stereo partly shown) [A-074]
34 | 1.95 | CC(=O)N[C@H]1[C@H]([C@H](O)[C@H](O)CNC(=O)c2cc(C)c(O)c(C)c2)O[C@@](CCN2CCOC[C@@]23CCN(C(=O)COCC(F)(F)F)C3)(C(=O)O)C[C@@H]1O [A-088]
35 | > 5 | CC(=O)N[C@H]1[C@H]([C@H](O)[C@H](O)CNC(=O)c2cc(C)c(O)c(C)c2)O[C@@](CCN2CCOC[C@@]23CCN(C(=O)c2c(C)cccc2C)C3)(C(=O)O)C[C@@H]1O [A-086]
36 | 0.009 | CC(=O)N[C@H]1[C@H]([C@H](O)[C@H](O)CNC(=O)c2cc(C)c3[nH]ncc3c2)O[C@@](CCN2CCOC[C@@]23CCN(C(=O)OC(C)(C)C)C3)(C(=O)O)C[C@@H]1O [A-130]
37 | 1.95 | CC(=O)N[C@H]1[C@H]([C@H](O)[C@H](O)CNC(=O)c2cc(C)c(O)c(C)c2)O[C@@](CCN2CCOC[C@@]23CCN(C(=O)C(C)(C)Oc2ccccc2)C3)(C(=O)O)C[C@@H]1O [A-081]
38 | > 5 | Cc1cc(C(=O)NC[C@@H](O)[C@@H](O)[C@@H]2O[C@@](CCN3CCOC[C@@]34CCN(C(=O)OC(C)(C)C)C4)(C(=O)O)C[C@H](O)[C@H]2N(C)C)cc(C)c1O [A-203]
39 | 0.247 | CC(=O)N[C@H]1[C@H]([C@H](O)[C@H](O)CNC(=O)c2cc(C)c(O)c(C)c2)O[C@@](CCN2CCOC[C@@]23CCN(C(=O)NC(C)(C)c2ccccc2)C3)(C(=O)O)C[C@@H]1O [A-055]
40 | 1.69 | CC(=O)N[C@H]1[C@H]([C@H](O)[C@H](O)CNC(=O)c2cc(C)c(O)c(C)c2)O[C@@](CCN2CCOC[C@@]23CCN(C(=O)c2ccc4[nH]c(C(C)O)nc4c2)C3)(C(=O)O)C[C@@H]1O (stereo partly shown) [A-095]
